Blank lines part the entries; values can stand above or below the compound they belong to. Peptide text beside a SMILES is read from it. * marks the point of attachment. Cbz = O=C(OCc1ccccc1)*; CH2F = FC*
What was measured:
Format in all cases: cell-based
[1] = molecular target: T1, SRC-3 (Homo sapiens, UniProt Q9Y6Q9); assay: Gal4 luciferase reporter assay (pBIND-SRC-3 + pG5-LUC) in HeLa cells; conditions: for effect on activation of SRC-3 by MCB-613: co-treatment with MCB-613, 24 hours; for intrinsic transcriptional activity of SRC-3: 24 hours, additional paraptosis agents
T1 construct: expressed in transfected cells; host or cells: HeLa
T1 sequence (Q9Y6Q9 whole entry, the tested form may be a part): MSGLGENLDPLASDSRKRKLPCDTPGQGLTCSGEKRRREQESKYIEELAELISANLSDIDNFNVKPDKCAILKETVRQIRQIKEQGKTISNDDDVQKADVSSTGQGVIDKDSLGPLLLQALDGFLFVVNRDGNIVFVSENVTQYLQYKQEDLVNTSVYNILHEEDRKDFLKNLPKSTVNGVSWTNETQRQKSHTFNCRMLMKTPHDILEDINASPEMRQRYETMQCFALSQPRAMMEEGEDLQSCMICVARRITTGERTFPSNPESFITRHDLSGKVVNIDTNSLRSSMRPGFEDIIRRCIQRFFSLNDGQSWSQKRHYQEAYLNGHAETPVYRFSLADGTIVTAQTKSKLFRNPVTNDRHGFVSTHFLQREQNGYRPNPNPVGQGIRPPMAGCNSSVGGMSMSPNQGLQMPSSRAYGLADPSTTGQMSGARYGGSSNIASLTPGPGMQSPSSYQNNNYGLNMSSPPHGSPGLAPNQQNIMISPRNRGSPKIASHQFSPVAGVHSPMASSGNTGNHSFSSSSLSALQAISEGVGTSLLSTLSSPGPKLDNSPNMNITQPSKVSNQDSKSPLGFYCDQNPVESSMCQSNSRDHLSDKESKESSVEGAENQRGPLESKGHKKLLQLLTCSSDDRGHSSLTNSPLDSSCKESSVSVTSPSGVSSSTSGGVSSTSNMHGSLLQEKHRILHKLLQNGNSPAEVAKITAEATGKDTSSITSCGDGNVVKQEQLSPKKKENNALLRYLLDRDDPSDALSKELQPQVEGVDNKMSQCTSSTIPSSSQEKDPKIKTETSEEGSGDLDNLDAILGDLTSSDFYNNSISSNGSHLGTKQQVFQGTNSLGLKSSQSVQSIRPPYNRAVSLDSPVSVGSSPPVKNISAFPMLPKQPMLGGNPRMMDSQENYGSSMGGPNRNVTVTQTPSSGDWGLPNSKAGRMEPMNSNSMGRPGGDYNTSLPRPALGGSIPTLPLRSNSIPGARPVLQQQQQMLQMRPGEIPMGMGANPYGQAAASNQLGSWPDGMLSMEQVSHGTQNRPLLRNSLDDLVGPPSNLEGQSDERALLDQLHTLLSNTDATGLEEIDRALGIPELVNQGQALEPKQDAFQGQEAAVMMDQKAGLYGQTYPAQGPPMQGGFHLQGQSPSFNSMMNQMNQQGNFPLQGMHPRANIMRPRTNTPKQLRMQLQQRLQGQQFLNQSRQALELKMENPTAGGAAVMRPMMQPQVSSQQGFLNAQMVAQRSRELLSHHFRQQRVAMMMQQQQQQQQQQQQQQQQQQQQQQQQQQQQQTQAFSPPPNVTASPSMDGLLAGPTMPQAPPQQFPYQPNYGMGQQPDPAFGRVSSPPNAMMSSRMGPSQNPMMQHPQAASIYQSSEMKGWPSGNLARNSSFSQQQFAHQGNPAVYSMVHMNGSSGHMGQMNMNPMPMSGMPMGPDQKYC
Protocol: (§1) The constructs expressing the Gal4 responsive luciferase reporter (pG5-luc), Gal4 DBD fusion with SRC-1, […] (pBIND-SRC-1/-2/-3), MMP2 or MMP13 promoter driven luciferase reporter (MMP2-luc, MMP13-luc) were prepared. Twenty-four hours before transfection, HeLa cells were plated in 24-well dishes. The indicated expression plasmids were transfected into cells using Lipofectamine 2000 according to the manufacturer's instructions.
(§2) After various compound treatments, cells were lysed in luciferase lysis buffer and assayed for luciferase activity using the ONE-Glo luciferase assay system (Promega, Madison, Wis.). All luciferase activities were normalized to protein concentration determined by Bradford assay (Bio-Rad, Hercules, Calif.).
HeLa cells were transfected with a Gal4 responsive luciferase reporter (pG5-luc) and a construct encoding SRC-1, SRC-2 or SRC-3 fused with the DNA binding domain of Gal4 (pBIND-SRC-1, pBIND-SRC-2 or pBIND-SRC-3) were treated with the indicated compounds.

[2] = test system: HeLa cells; assay: MTS cell viability assay, HeLa cells; conditions: HeLa cells, co-treatment with MCB-613, 24 hours
[3] = test system: HeLa cells; assay: Cytoplasmic vacuolization of cancer cells; conditions: HeLa cells, co-treatment with MCB-613, 24 hours
[4] = molecular target: T2, SRC-2 (Homo sapiens, UniProt Q15596); assay: Gal4 luciferase reporter assay (pBIND-SRC-2 + pG5-LUC) in HeLa cells; conditions: for intrinsic transcriptional activity of SRC-2: 24 hours, additional paraptosis agents
T2 construct: expressed in transfected cells; host or cells: HeLa
T2 sequence (Q15596 whole entry, the tested form may be a part): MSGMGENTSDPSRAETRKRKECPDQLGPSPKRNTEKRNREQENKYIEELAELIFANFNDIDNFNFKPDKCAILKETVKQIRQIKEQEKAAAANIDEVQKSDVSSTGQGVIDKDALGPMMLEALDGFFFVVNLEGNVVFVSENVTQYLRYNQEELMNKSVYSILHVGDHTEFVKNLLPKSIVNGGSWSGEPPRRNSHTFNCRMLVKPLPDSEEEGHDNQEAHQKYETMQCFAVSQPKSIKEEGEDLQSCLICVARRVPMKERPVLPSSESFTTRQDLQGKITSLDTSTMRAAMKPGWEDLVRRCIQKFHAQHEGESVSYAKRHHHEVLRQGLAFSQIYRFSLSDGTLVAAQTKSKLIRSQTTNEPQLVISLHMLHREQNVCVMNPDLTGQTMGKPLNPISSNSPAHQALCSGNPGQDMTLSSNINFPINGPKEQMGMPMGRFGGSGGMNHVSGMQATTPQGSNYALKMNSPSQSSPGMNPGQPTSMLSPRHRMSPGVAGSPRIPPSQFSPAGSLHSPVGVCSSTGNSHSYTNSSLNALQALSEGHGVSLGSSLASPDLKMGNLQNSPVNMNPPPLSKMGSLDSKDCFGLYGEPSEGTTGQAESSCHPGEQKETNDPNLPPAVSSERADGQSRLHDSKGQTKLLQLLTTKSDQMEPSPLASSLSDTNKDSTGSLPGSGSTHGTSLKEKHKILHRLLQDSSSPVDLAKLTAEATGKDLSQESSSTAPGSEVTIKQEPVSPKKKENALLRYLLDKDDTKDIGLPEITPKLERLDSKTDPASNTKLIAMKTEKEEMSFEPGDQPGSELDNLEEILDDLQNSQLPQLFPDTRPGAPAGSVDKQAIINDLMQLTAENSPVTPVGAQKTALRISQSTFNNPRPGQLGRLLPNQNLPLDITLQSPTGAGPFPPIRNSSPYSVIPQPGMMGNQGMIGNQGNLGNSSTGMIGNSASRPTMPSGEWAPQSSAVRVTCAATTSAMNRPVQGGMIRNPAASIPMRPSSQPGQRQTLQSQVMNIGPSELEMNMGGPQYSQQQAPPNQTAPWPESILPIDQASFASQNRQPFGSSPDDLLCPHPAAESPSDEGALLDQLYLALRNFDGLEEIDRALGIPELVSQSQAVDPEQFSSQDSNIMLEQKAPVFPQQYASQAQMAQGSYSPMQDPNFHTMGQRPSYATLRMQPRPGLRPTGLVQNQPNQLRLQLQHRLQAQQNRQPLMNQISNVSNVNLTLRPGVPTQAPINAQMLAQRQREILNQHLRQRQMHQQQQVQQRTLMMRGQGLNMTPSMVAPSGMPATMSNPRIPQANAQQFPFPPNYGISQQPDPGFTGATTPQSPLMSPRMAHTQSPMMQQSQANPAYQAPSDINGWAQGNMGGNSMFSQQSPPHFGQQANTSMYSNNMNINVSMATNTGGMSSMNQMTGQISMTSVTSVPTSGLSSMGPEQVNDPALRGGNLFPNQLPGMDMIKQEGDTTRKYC
Protocol: as §1, §2

[5] = molecular target: SRC-1 (Homo sapiens, UniProt Q15788); assay: Gal4 luciferase reporter assay (pBIND-SRC-1 + pG5-LUC) in HeLa cells; set-up: expressed in transfected cells; host or cells: HeLa; conditions: for intrinsic transcriptional activity of SRC-1: 24 hours, additional paraptosis agents
Sequence of SRC-1 (Q15788 whole entry, the tested form may be a part): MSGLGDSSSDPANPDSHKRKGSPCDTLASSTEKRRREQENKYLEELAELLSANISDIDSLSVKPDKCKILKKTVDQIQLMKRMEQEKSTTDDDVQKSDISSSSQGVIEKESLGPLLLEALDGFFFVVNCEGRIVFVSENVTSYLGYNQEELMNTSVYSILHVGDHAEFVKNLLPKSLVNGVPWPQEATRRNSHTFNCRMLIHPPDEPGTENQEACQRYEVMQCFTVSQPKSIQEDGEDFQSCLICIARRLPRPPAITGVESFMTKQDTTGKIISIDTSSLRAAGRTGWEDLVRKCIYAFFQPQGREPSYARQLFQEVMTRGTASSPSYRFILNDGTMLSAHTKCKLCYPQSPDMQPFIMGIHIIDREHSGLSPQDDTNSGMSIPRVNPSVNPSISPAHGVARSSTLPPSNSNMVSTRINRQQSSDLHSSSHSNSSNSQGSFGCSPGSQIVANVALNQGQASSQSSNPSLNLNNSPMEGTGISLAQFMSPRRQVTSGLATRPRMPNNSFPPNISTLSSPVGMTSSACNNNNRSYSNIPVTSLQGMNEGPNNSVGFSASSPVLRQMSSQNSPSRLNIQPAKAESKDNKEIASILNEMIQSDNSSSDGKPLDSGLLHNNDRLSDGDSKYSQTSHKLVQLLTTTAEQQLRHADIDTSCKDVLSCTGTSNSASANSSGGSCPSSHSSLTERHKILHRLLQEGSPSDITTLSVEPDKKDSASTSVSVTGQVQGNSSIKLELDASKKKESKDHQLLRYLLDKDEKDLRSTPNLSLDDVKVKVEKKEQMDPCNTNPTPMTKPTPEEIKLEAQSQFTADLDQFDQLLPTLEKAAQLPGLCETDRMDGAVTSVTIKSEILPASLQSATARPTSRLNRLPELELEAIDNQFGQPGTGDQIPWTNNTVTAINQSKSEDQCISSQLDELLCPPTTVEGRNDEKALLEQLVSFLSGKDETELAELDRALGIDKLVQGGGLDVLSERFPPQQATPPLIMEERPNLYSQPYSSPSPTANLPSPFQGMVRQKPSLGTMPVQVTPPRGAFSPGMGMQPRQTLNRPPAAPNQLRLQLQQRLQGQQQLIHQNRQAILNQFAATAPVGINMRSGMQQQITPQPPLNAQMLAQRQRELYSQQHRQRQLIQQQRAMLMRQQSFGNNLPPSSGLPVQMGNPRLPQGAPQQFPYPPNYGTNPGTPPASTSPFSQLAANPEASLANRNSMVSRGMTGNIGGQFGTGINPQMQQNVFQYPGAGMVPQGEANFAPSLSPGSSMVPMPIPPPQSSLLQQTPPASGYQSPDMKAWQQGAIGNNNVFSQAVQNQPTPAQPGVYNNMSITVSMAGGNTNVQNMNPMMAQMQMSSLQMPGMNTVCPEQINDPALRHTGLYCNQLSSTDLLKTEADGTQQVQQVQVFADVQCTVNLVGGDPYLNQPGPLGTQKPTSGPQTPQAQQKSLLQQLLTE
Protocol: as §1, §2

[6] = test system: HeLa cells; assay: Western blot of stress, UPR, autophagy and apoptosis markers in HeLa cells; conditions: co-treatment with MCB-613, 24 hours
Protocol: For Western blotting, cells were harvested and lysed in lysis buffer (50 mM Tris, pH 8.0, 150 mM NaCl, 10% glycerol, 0.5% NP40, protease and phosphatase inhibitor) and then centrifuged for 15 min at 14000 rpm at 4° C. After total cellular protein concentration was determined by Bradford analysis (Bio-Rad, Hercules, Calif.), protein lysates were loaded onto and resolved by sodium dodecyl sulfate-polyacrylamide gel electrophoresis (SDS-PAGE) and transferred to PVDF membranes (BioRad) which were blocked and incubated with indicated antibodies. For immunoprecipitation, 10 μg of plasmid encoding FLAG-SRC-3 was transfected into HeLa cells with 90% confluence in one 10 cm plate with lipofectamine 2000 (Invitrogen). Twenty-four hours after transfection, the cells were treated with MCB-613 for one hour and lysed with lysis buffer (25 mM Tris-Cl pH7.5, 150 mM NaCl, 5% glycerol, 1 mM EDTA, 1% Triton X-100, protease and phosphatase inhibitor) at 4° C. After a 30-second sonication, the lysate was cleared by centrifugation at 14000 rpm at 4° C. for 15 minutes and was incubated with anti-Flag-M2 agarose affinity gel (Sigma) for four hours. The agarose gel was washed four times with washing buffer (25 mM Tris pH 8.0, 150 mM NaCl, 1 mM EDTA, 1% Triton X-100) and resuspended with SDS loading buffer for Western blotting.

[7] = test system: TM4 Sertoli cells and GBM cancer cells; assay: CellTiter-Glo viability, TM4 Sertoli cells versus GBM cell lines R0315 and 4687; conditions: 72 hours, GBM R0315 and 4687 vs TM4 Sertoli
Protocol: The effects of SYC-851 (Compound 4-8), SYC-852 (Compound 5-1), SYC-853 (Compound 5-4), and SYC-855 (Compound 7-8) on TM4 Sertoli cells and on GBM cancer cells were determined. Cells were plated as monolayer cultures and treated 24 hours later with the indicated concentration of compounds. After 72 hours, cells were harvested and assayed for viability using a CellTiter-Glo assay […]. The results for TM4 Setoli cells and for pediatric glioblastoma multiforme cell lines R0315 and 4687 and are shown in FIGS. 18A, 18B, and 18C, respectively.

[8] = co-treatment with MCB-613, 24 hours

SMILES: CC(=O)N[C@@H](CS)C(=O)O [N-Acetyl cysteine]
effect on cell death caused by MCB-613 [2]: protected cells from MCB-613 mediated cytotoxicity
effect on vacuolization induced by MCB-613 [3]: blocked
effect on activation of SRC-2 by MCB-613 [4, 8]: abrogate
effect on activation of SRC-3 by MCB-613 [1]: abrogate
effect on activation of SRC-1 by MCB-613 [5, 8]: abrogate

SMILES: C[C@]12CC[C@H](O)C[C@H]1CC[C@@H]1[C@@H]2CC[C@]2(C)[C@@H](c3ccc(=O)oc3)CC[C@]12O [bufalin, reference compound]
effect on vacuolization induced by MCB-613 [3]: effectively inhibited
effect on induction of ER stress (ATF4) by MCB-613 [6]: completely reversed

SMILES: Cn1cnc(N)c2ncnc1-2 [Compound 3-MA, 3-methyladenine]
effect on activation of SRC-3 by MCB-613 [1]: did not inhibit

SMILES: CCCCC/C=C/C=C1/C(=O)C=C[C@@H]1C/C=C\CCCC(=O)O [Compound 15d-PGJ2, 15-deoxy-Δ^12,14-prostaglandin J2]
intrinsic transcriptional activity of SRC-2 [4]: robustly enhance
intrinsic transcriptional activity of SRC-3 [1]: robustly enhance
intrinsic transcriptional activity of SRC-1 [5]: robustly enhance

SMILES: C[C@@H]1C[C@@H]([C@H](O)CC2CC(=O)NC(=O)C2)C(=O)[C@@H](C)C1 [cycloheximide]
effect on cell death caused by MCB-613 [2]: protected cells from MCB-613 mediated cytotoxicity
effect on vacuolization induced by MCB-613 [3]: blocked

SMILES: O=C1C(=Cc2cccnc2)COCC1=Cc1cccnc1 [SYC-851]
toxicity to cancer cells compared with non-cancer cells [7]: more toxicity to cancer cells than to non-cancer cells

SMILES: CC(C)C[C@@H](C=O)NC(=O)[C@H](CC(C)C)NC(=O)[C@H](CC(C)C)NC(=O)OCc1ccccc1 [MG132] (Cbz-Leu-Leu-Leu-aldehyde)
intrinsic transcriptional activity of SRC-2 [4]: robustly enhance
intrinsic transcriptional activity of SRC-3 [1]: robustly enhance
intrinsic transcriptional activity of SRC-1 [5]: robustly enhance

Continued, in another order:

effect on activation of SRC-3 by MCB-613 [1]: did not inhibit
SMILES: COC(=O)C[C@H](NC(=O)[C@H](C)NC(=O)[C@@H](NC(=O)OCc1ccccc1)C(C)C)C(=O)CF [z-VAD-fmk] (Cbz-Val-Ala-Asp(OMe)-CH2F)

effect on activation of SRC-3 by MCB-613 [1]: did not inhibit
SMILES: CCN(CC)CCCC(C)Nc1ccnc2cc(Cl)ccc12 (stereo not shown) [chloroquine]

intrinsic transcriptional activity of SRC-2 [4]: robustly enhance
intrinsic transcriptional activity of SRC-3 [1]: robustly enhance
intrinsic transcriptional activity of SRC-1 [5]: robustly enhance
SMILES: COc1cc(/C=C/C(=O)CC(=O)/C=C/c2ccc(O)c(OC)c2)ccc1O [curcumin]

effect on activation of SRC-3 by MCB-613 [1]: significantly inhibited
SMILES: CO[C@@H](C(=O)N1Cc2n[nH]c(NC(=O)c3ccc(N4CCN(C)CC4)cc3)c2C1)c1ccccc1 [PHA 739358]

SRC-3 intrinsic transcriptional activity (luciferase) ([1]; Example 6): high intrinsic transcriptional activity
SMILES: CC(C)N1CC(=Cc2cccnc2)C(=O)C(=Cc2cccnc2)C1 [SYC-855]
toxicity to cancer cells compared with non-cancer cells [7]: more toxicity to cancer cells than to non-cancer cells
